Experiment: Shelf life stability program of bupropion HBr, 25° C./60% RH, 3 and 6 months, HPLC
Assay type: physicochemical
Conditions: 25° C., R.H. 60%; for Chromatographic purity B) (HPLC) 4) 2-N-(tert-Butyl)-aminopropiophenone / Chromatographic purity B) (HPLC) 5) single unknown impurity (each): LOQ 0.02%, LOD 0.002%; for Chromatographic purity A) (HPLC) 1) 3′-Chloropropiophenone / Chromatographic purity A) (HPLC) 3) 3′-Chlorobenzoic acid / Chromatographic purity A) (HPLC) 2) 3′-Chloro-2-bromopropiophenone: LOQ 0.05%; for Chromatographic purity A) (HPLC) 1) 3′-Chloropropiophenone / Chromatographic purity A) (HPLC) 3) 3′-Chlorobenzoic acid: LOD 0.01%; for Chromatographic purity A) (HPLC) 2) 3′-Chloro-2-bromopropiophenone: LOD 0.04%
Protocol: The stability of bupropion HBr was studied over a longer term under conditions meant to approximate standard storage or shelf conditions. Samples were prepared in closed containers and subjected to long-term storage at 25° C.+2° C. and 60%+5% RH in a stability chamber. The samples were analyzed by HPLC prior to being placed in the stability chamber (time 0) and after 3 months and 6 months. The amounts of the main degradation products present at time 0 were compared with the amounts present at 3 months and 6 months. As shown in Table 77-79 three different batches of bupropion HBr were tested. As in Example 10 each sample was tested under two HPLC assay conditions to identify 6 impurities or groups of impurities as described in Example 10.

Structure (SMILES): Br.CC(NC(C)(C)C)C(=O)c1cccc(Cl)c1 (stereo not drawn) [Bupropion•HBr]
- Assay (HPLC) (Batch D00894, 12 months): 99.6 % on d.b.
- Chromatographic purity (HPLC: A + B) Total impurities (Batch D00894, 12 months): 0.2%
- Chromatographic purity B) (HPLC) 6) total unknown impurities (Batch D00894, 12 months): 6) 0.07%
- Description (white or almost white crystalline powder) (Batch D00894, 12 months): conform
- Identification IR, HPLC (Batch D00894, 12 months): positive
- Water content (K.F.) (Batch D00894, 12 months): 0.05%
- Chromatographic purity B) (HPLC) 4) 2-N-(tert-Butyl)-aminopropiophenone (Batch D00894, 12 months): 4) 0.05%
- Chromatographic purity B) (HPLC) 5) single unknown impurity (each) (Batch D00894, 12 months): 5) 0.05%
- Chromatographic purity A) (HPLC) 1) 3′-Chloropropiophenone (Batch D00894, 12 months): 1) n.d.
- Chromatographic purity A) (HPLC) 3) 3′-Chlorobenzoic acid (Batch D00894, 12 months): 3) 0.05%
- Chromatographic purity A) (HPLC) 2) 3′-Chloro-2-bromopropiophenone (Batch D00894, 12 months): 2) n.d.
- Assay (HPLC) (Batch D00894, time 0): 99.6 % on d.b.
- Chromatographic purity (HPLC: A + B) Total impurities (Batch D00894, time 0): 0.1%
- Chromatographic purity B) (HPLC) 6) total unknown impurities (Batch D00894, time 0): 6) 0.04%
- Description (white or almost white crystalline powder) (Batch D00894, time 0): conform
- Identification IR, HPLC (Batch D00894, time 0): positive
- Water content (K.F.) (Batch D00894, time 0): 0.05%
- Chromatographic purity B) (HPLC) 4) 2-N-(tert-Butyl)-aminopropiophenone (Batch D00894, time 0): 4) 0.04%
- Chromatographic purity B) (HPLC) 5) single unknown impurity (each) (Batch D00894, time 0): 5) 0.04%
- Chromatographic purity A) (HPLC) 1) 3′-Chloropropiophenone (Batch D00894, time 0): 1) n.d.
- Chromatographic purity A) (HPLC) 3) 3′-Chlorobenzoic acid (Batch D00894, time 0): 3) n.q.
- Chromatographic purity A) (HPLC) 2) 3′-Chloro-2-bromopropiophenone (Batch D00894, time 0): 2) n.d.
- Assay (HPLC) (Batch D00895, 3 months): 99.5 % on d.b.
- Chromatographic purity (HPLC: A + B) Total impurities (Batch D00895, 3 months): 0.1%
- Chromatographic purity B) (HPLC) 6) total unknown impurities (Batch D00895, 3 months): 6) 0.05%
- Description (white or almost white crystalline powder) (Batch D00895, 3 months): conform
- Identification IR, HPLC (Batch D00895, 3 months): positive
- Water content (K.F.) (Batch D00895, 3 months): 0.04%
- Chromatographic purity B) (HPLC) 4) 2-N-(tert-Butyl)-aminopropiophenone (Batch D00895, 3 months): 4) 0.03%
- Chromatographic purity B) (HPLC) 5) single unknown impurity (each) (Batch D00895, 3 months): 5) 0.04%
- Chromatographic purity A) (HPLC) 1) 3′-Chloropropiophenone (Batch D00895, 3 months): 1) n.q.
- Chromatographic purity A) (HPLC) 3) 3′-Chlorobenzoic acid (Batch D00895, 3 months): 3) n.q.
- Chromatographic purity A) (HPLC) 2) 3′-Chloro-2-bromopropiophenone (Batch D00895, 3 months): 2) n.d.
- Assay (HPLC) (Batch D00895, 6 months): 100.1 % on d.b.
- Chromatographic purity (HPLC: A + B) Total impurities (Batch D00895, 6 months): 0.1%
- Chromatographic purity B) (HPLC) 6) total unknown impurities (Batch D00895, 6 months): 6) 0.02%
- Description (white or almost white crystalline powder) (Batch D00895, 6 months): conform
- Identification IR, HPLC (Batch D00895, 6 months): positive
- Water content (K.F.) (Batch D00895, 6 months): 0.05%
- Chromatographic purity B) (HPLC) 4) 2-N-(tert-Butyl)-aminopropiophenone (Batch D00895, 6 months): 4) 0.05%
- Chromatographic purity B) (HPLC) 5) single unknown impurity (each) (Batch D00895, 6 months): 5) n.q.
- Chromatographic purity A) (HPLC) 1) 3′-Chloropropiophenone (Batch D00895, 6 months): 1) 0.05%
- Chromatographic purity A) (HPLC) 3) 3′-Chlorobenzoic acid (Batch D00895, 6 months): 3) n.q.
- Chromatographic purity A) (HPLC) 2) 3′-Chloro-2-bromopropiophenone (Batch D00895, 6 months): 2) n.d.
- Assay (HPLC) (Batch D00895, 9 months): 99.4 % on d.b.
- Chromatographic purity (HPLC: A + B) Total impurities (Batch D00895, 9 months): n.q.
- Chromatographic purity B) (HPLC) 6) total unknown impurities (Batch D00895, 9 months): 6) n.q.
- Description (white or almost white crystalline powder) (Batch D00895, 9 months): conform
- Identification IR, HPLC (Batch D00895, 9 months): positive
- Water content (K.F.) (Batch D00895, 9 months): 0.05%
- Chromatographic purity B) (HPLC) 4) 2-N-(tert-Butyl)-aminopropiophenone (Batch D00895, 9 months): 4) n.d.
- Chromatographic purity B) (HPLC) 5) single unknown impurity (each) (Batch D00895, 9 months): 5) n.q.
- Chromatographic purity A) (HPLC) 1) 3′-Chloropropiophenone (Batch D00895, 9 months): 1) n.q.
- Chromatographic purity A) (HPLC) 3) 3′-Chlorobenzoic acid (Batch D00895, 9 months): 3) n.q.
- Chromatographic purity A) (HPLC) 2) 3′-Chloro-2-bromopropiophenone (Batch D00895, 9 months): 2) n.d.
- Assay (HPLC) (Batch D00895, 12 months): 99.4 % on d.b.
- Chromatographic purity (HPLC: A + B) Total impurities (Batch D00895, 12 months): 0.2%
- Chromatographic purity B) (HPLC) 6) total unknown impurities (Batch D00895, 12 months): 6) 0.07%
- Description (white or almost white crystalline powder) (Batch D00895, 12 months): conform
- Identification IR, HPLC (Batch D00895, 12 months): positive
- Water content (K.F.) (Batch D00895, 12 months): 0.04%
- Chromatographic purity B) (HPLC) 4) 2-N-(tert-Butyl)-aminopropiophenone (Batch D00895, 12 months): 4) 0.05%
- Chromatographic purity B) (HPLC) 5) single unknown impurity (each) (Batch D00895, 12 months): 5) 0.07%
- Chromatographic purity A) (HPLC) 1) 3′-Chloropropiophenone (Batch D00895, 12 months): 1) n.d.
- Chromatographic purity A) (HPLC) 3) 3′-Chlorobenzoic acid (Batch D00895, 12 months): 3) 0.05%
- Chromatographic purity A) (HPLC) 2) 3′-Chloro-2-bromopropiophenone (Batch D00895, 12 months): 2) n.d.
- Assay (HPLC) (Batch D00895, time 0): 99.2 % on d.b.
- Chromatographic purity (HPLC: A + B) Total impurities (Batch D00895, time 0): 0.1%
- Chromatographic purity B) (HPLC) 6) total unknown impurities (Batch D00895, time 0): 6) 0.04%
- Description (white or almost white crystalline powder) (Batch D00895, time 0): conform
- Identification IR, HPLC (Batch D00895, time 0): positive
- Water content (K.F.) (Batch D00895, time 0): 0.04%
- Chromatographic purity B) (HPLC) 4) 2-N-(tert-Butyl)-aminopropiophenone (Batch D00895, time 0): 4) 0.04%
- Chromatographic purity B) (HPLC) 5) single unknown impurity (each) (Batch D00895, time 0): 5) 0.04%
- Chromatographic purity A) (HPLC) 1) 3′-Chloropropiophenone (Batch D00895, time 0): 1) n.d.
- Chromatographic purity A) (HPLC) 3) 3′-Chlorobenzoic acid (Batch D00895, time 0): 3) n.q.
- Chromatographic purity A) (HPLC) 2) 3′-Chloro-2-bromopropiophenone (Batch D00895, time 0): 2) n.d.
- Assay (HPLC) (Batch D00896, 3 months): 99.4 % on d.b.
- Chromatographic purity (HPLC: A + B) Total impurities (Batch D00896, 3 months): 0.1%
- Chromatographic purity B) (HPLC) 6) total unknown impurities (Batch D00896, 3 months): 6) 0.05%
- Description (white or almost white crystalline powder) (Batch D00896, 3 months): conform
- Identification IR, HPLC (Batch D00896, 3 months): positive
- Water content (K.F.) (Batch D00896, 3 months): 0.04%
- Chromatographic purity B) (HPLC) 4) 2-N-(tert-Butyl)-aminopropiophenone (Batch D00896, 3 months): 4) 0.03%
- Chromatographic purity B) (HPLC) 5) single unknown impurity (each) (Batch D00896, 3 months): 5) 0.04%
- Chromatographic purity A) (HPLC) 1) 3′-Chloropropiophenone (Batch D00896, 3 months): 1) n.q.
- Chromatographic purity A) (HPLC) 3) 3′-Chlorobenzoic acid (Batch D00896, 3 months): 3) n.q.
- Chromatographic purity A) (HPLC) 2) 3′-Chloro-2-bromopropiophenone (Batch D00896, 3 months): 2) n.d.
- Assay (HPLC) (Batch D00896, 6 months): 100.5 % on d.b.
- Chromatographic purity (HPLC: A + B) Total impurities (Batch D00896, 6 months): 0.1%
- Chromatographic purity B) (HPLC) 6) total unknown impurities (Batch D00896, 6 months): 6) n.q.
- Description (white or almost white crystalline powder) (Batch D00896, 6 months): conform
- Identification IR, HPLC (Batch D00896, 6 months): positive
- Water content (K.F.) (Batch D00896, 6 months): 0.04%
- Chromatographic purity B) (HPLC) 4) 2-N-(tert-Butyl)-aminopropiophenone (Batch D00896, 6 months): 4) 0.04%
- Chromatographic purity B) (HPLC) 5) single unknown impurity (each) (Batch D00896, 6 months): 5) n.q.
- Chromatographic purity A) (HPLC) 1) 3′-Chloropropiophenone (Batch D00896, 6 months): 1) 0.05%
- Chromatographic purity A) (HPLC) 3) 3′-Chlorobenzoic acid (Batch D00896, 6 months): 3) n.q.
- Chromatographic purity A) (HPLC) 2) 3′-Chloro-2-bromopropiophenone (Batch D00896, 6 months): 2) n.d.
- Assay (HPLC) (Batch D00896, 9 months): 99.4 % on d.b.
- Chromatographic purity (HPLC: A + B) Total impurities (Batch D00896, 9 months): n.q.
- Chromatographic purity B) (HPLC) 6) total unknown impurities (Batch D00896, 9 months): 6) n.q.
- Description (white or almost white crystalline powder) (Batch D00896, 9 months): conform
- Identification IR, HPLC (Batch D00896, 9 months): positive
- Water content (K.F.) (Batch D00896, 9 months): 0.04%
- Chromatographic purity B) (HPLC) 4) 2-N-(tert-Butyl)-aminopropiophenone (Batch D00896, 9 months): 4) n.d.
- Chromatographic purity B) (HPLC) 5) single unknown impurity (each) (Batch D00896, 9 months): 5) n.q.
- Chromatographic purity A) (HPLC) 1) 3′-Chloropropiophenone (Batch D00896, 9 months): 1) n.q.
- Chromatographic purity A) (HPLC) 3) 3′-Chlorobenzoic acid (Batch D00896, 9 months): 3) n.q.
- Chromatographic purity A) (HPLC) 2) 3′-Chloro-2-bromopropiophenone (Batch D00896, 9 months): 2) n.d.
- Assay (HPLC) (Batch D00896, 12 months): 100.3 % on d.b.
- Chromatographic purity (HPLC: A + B) Total impurities (Batch D00896, 12 months): 0.1%
- Chromatographic purity B) (HPLC) 6) total unknown impurities (Batch D00896, 12 months): 6) 0.07%
- Description (white or almost white crystalline powder) (Batch D00896, 12 months): conform
- Identification IR, HPLC (Batch D00896, 12 months): positive
- Water content (K.F.) (Batch D00896, 12 months): 0.03%
- Chromatographic purity B) (HPLC) 4) 2-N-(tert-Butyl)-aminopropiophenone (Batch D00896, 12 months): 4) 0.05%
- Chromatographic purity B) (HPLC) 5) single unknown impurity (each) (Batch D00896, 12 months): 5) 0.07%
- Chromatographic purity A) (HPLC) 1) 3′-Chloropropiophenone (Batch D00896, 12 months): 1) n.d.
- Chromatographic purity A) (HPLC) 3) 3′-Chlorobenzoic acid (Batch D00896, 12 months): 3) n.q.
- Chromatographic purity A) (HPLC) 2) 3′-Chloro-2-bromopropiophenone (Batch D00896, 12 months): 2) n.d.
- Assay (HPLC) (Batch D00896, time 0): 99.3 % on d.b.
- Chromatographic purity (HPLC: A + B) Total impurities (Batch D00896, time 0): 0.1%
- Chromatographic purity B) (HPLC) 6) total unknown impurities (Batch D00896, time 0): 6) 0.05%
- Description (white or almost white crystalline powder) (Batch D00896, time 0): conform
- Identification IR, HPLC (Batch D00896, time 0): positive
- Water content (K.F.) (Batch D00896, time 0): 0.06%
- Chromatographic purity B) (HPLC) 4) 2-N-(tert-Butyl)-aminopropiophenone (Batch D00896, time 0): 4) 0.04%
- Chromatographic purity B) (HPLC) 5) single unknown impurity (each) (Batch D00896, time 0): 5) 0.05%
- Chromatographic purity A) (HPLC) 1) 3′-Chloropropiophenone (Batch D00896, time 0): 1) n.d.
- Chromatographic purity A) (HPLC) 3) 3′-Chlorobenzoic acid (Batch D00896, time 0): 3) n.q.
- Chromatographic purity A) (HPLC) 2) 3′-Chloro-2-bromopropiophenone (Batch D00896, time 0): 2) n.d.
